In patent US10173991B2, “Sulfone amide linked benzothiazole inhibitors of endothelial lipase” (BRISTOL-MYERS SQUIBB COMPANY, priority 2014, dated 2019):
Like-named read-outs stand apart in the source and are kept apart here.

Target: Endothelial lipase (EL) (Homo sapiens (Human), UniProt Q9Y5X9)
Assay: Endothelial lipase (EL) enzymatic assay with fluorescent substrate A10070 in DMPG vesicles
Type: biochemical
Procedure, shortened: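 Vesicles prepared: A10070 dried with DMPG, resuspended in HEPES pH 8.0/NaCl/EDTA, sonicated on ice. Enzyme incubated with compound 30 min at 37° C. Reaction started with 1:10 diluted vesicles. Fluorescence (490/530 nm) followed 60 min; slope from 300–900 secs gives rate.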

Chain of Endothelial lipase (EL) (Q9Y5X9 21-500): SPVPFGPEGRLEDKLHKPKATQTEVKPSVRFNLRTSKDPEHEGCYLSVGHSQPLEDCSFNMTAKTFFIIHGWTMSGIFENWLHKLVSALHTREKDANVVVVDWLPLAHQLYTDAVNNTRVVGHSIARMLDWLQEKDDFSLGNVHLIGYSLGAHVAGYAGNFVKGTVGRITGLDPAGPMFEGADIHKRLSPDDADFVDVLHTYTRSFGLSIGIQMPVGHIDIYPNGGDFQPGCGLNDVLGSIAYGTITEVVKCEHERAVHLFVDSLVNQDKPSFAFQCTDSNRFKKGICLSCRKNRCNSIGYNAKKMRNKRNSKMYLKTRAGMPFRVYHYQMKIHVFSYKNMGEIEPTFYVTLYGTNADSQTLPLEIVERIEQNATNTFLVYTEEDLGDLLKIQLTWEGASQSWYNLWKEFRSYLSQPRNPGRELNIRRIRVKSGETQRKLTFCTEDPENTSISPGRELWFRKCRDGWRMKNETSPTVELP

IC50 [nM] | IC50 (EL from conditioned media of HT-1080 cells, 30 min preincubation at 37° C.) [nM] | Compound
3 | – | COCCS(=O)(=O)C(C(=O)NCC(=O)NC1CC1)c1nc2cc(-c3ccccc3)c(F)cc2s1 (stereo not shown) [Example 612, N-[(cyclopropyl-carbamoyl)methyl]-2-(6-fluoro-5-phenyl-1,3-benzothiazol-2-yl)-2-(2-methoxyethane-sulfonyl)acetamide]
21 | – | CC(C)OCCNC(=O)CNC(=O)C(c1nc2cc(-c3ccc(F)nc3)c(F)cc2s1)S(C)(=O)=O (stereo not shown) [Example 360, 2-[6-fluoro-5-(6-fluoropyridin-3-yl)-1,3-benzothiazol-2-yl]-2-methanesulfonyl-N-({[2-(propan-2-yloxy)ethyl]carbamoyl}methyl)acetamide]
18 | – | COCCS(=O)(=O)C(C(=O)NCC(=O)NC1CC1)c1nc2cc(-c3cccnc3C)ccc2s1 (stereo not shown) [Example 91, N-[(cyclopropyl-carbamoyl)methyl]-2-(2-methoxyethane-sulfonyl)-2-[5-(2-methylpyridin-3-yl)-1,3-benzothiazol-2-yl]acetamide]
15 | – | COCCNC(=O)c1ccc(-c2ccc3sc(C(C(=O)NCC(=O)NC4CC4)S(=O)(=O)CCOC)nc3c2)cc1 (stereo not shown) [Example 334, 4-[2-({[(cyclopropyl-carbamoyl)methyl]carbamoyl}(2-methoxyethane-sulfonyl)methyl)-1,3-benzothiazol-5-yl]-N-(2-methoxyethyl) benzamide]
4 | – | COCCS(=O)(=O)C(C(=O)NCC(=O)NC1CC1)c1nc2ccc(-c3ccc(C(=O)NCC(C)(C)OC)cc3)cc2s1 (stereo not shown) [Example 566, 4-[2-({[(cyclopropyl-carbamoyl)methyl]carbamoyl}(2-methoxyethane-sulfonyl)methyl)-1,3-benzothiazol-6-yl]-N-(2-methoxy-2-methylpropyl) benzamide]
50 | – | COCCS(=O)(=O)C(C(=O)NCC(=O)NC1CC1)c1nc2ccc(-c3ccc(C(=O)N4CCOCC4)cc3)cc2s1 (stereo not shown) [Example 309, N-[(cyclopropyl-carbamoyl)methyl]-2-(2-methoxyethane-sulfonyl)-2-{6-[4-(morpholine-4-arbonyl)phenyl]-1,3-benzothiazol-2-yl}acetamide]
34 | – | COCCS(=O)(=O)C(C(=O)NCC(=O)NCCOC(C)C)c1nc2cc(-c3ccn(C)c(=O)c3)c(F)cc2s1 (stereo not shown) [Example 353, 2-[6-fluoro-5-(1-methyl-2-oxo-1,2-dihydropyridin-4-yl)-1,3-benzothiazol-2-yl]-2-(2-methoxyethane-sulfonyl)-N-({[2-(propan-2-yloxy)ethyl]carbamoyl}methyl)acetamide]
131 | – | COCCS(=O)(=O)C(C(=O)NCC(=O)NC1CC1)c1nc2cc(-c3cnc(-n4cccn4)nc3)c(F)cc2s1 (stereo not shown) [Example 131, N-[(cyclopropyl-carbamoyl)methyl]-2-{6-fluoro-5-[2-(1H-pyrazol-1-yl)pyrimidin-5-yl]-1,3-benzothiazol-2-yl}-2-(2-methoxyethane-sulfonyl) acetamide]
– | 4.5 | COC(=O)Nc1ccc(-c2cc3sc(C(C(=O)NCC(=O)NC4CC4)S(C)(=O)=O)nc3cc2F)cc1OC (stereo not shown) [Example 538, Methyl N-{4-[2({[(cyclopropylcarbamoyl)methyl]carbamoyl}(methanesulfonyl)methyl)-5-fluoro-1,3-benzothiazol-6-yl]-2-methoxyphenyl}carbamate]
37 | – | COCCS(=O)(=O)C(C(=O)NCC(=O)NC1CC1)c1nc2cc(C(F)(F)F)c(-c3ccc(=O)n(C(C)C)c3)cc2s1 (stereo not shown) [Example 188, N-[(cyclopropyl-carbamoyl)methyl]-2-(2-methoxyethane-sulfonyl)-2-{6-[6-oxo-1-(propan-2-yl)-1,6-dihydropyridin-3-yl]-5-(trifluoromethyl)-1,3-benzothiazol-2-yl}acetamide]
116 | – | O=C(CNC(=O)C(c1nc2c(F)cc(-c3cncnc3)cc2s1)S(=O)(=O)c1ccc(F)cc1)NC1CC1 (stereo not shown) [Example 474, N-[(cyclopropyl-carbamoyl)methyl]-2-[4-fluoro-6-(pyrimidin-5-yl)-1,3-benzothiazol-2-yl]-2-(4-fluorobenzene-sulfonyl)acetamide]
8 | – | COCCS(=O)(=O)C(C(=O)NCC(=O)NC1CC1)c1nc2ccc(-c3ccc(NC(=O)OC)cc3)cc2s1 (stereo not shown) [Example 100, methyl N-{4-[2-({[(cyclopropyl-carbamoyl)methyl]carbamoyl}(2-methoxyethane-sulfonyl)methyl)-1,3-benzothiazol-6-yl]phenyl} carbamate]
15 | – | O=C(CNC(=O)C(c1nc2cc(F)c(-c3ccc(NC(=O)OCc4ccccc4)nc3)cc2s1)S(=O)(=O)CCN1CCOCC1)NC1CC1 (stereo not shown) [Example 424, benzyl N-{5-[2-({[(cyclopropyl-carbamoyl)methyl]carbamoyl}[2-(morpholin-4-yl)ethanesulfonyl]methyl)-5-fluoro-1,3-benzothiazol-6-yl]pyridin-2-yl} carbamate]
18 | – | COCCS(=O)(=O)C(C(=O)NCC(=O)NC1CC1)c1nc2cc(C(F)(F)F)c(Br)cc2s1 (stereo not shown) [Example 165, 2-[6-bromo-5-(trifluoromethyl)-1,3-benzothiazol-2-yl]-N-[(cyclopropyl-carbamoyl)methyl]-2-(2-methoxyethane-sulfonyl) acetamide]
5 | – | CS(=O)(=O)C(C(=O)NCC(=O)NC1CC1)c1nc2cc(F)c(-c3cnc(-c4ccccc4)nc3)cc2s1 (stereo not shown) [Example 202, N-[(cyclopropyl-carbamoyl)methyl]-2-[5-fluoro-6-(2-phenylpyrimidin-5-yl)-1,3-benzothiazol-2-yl]-2-methanesulfonyl-acetamide]
25 | – | Cc1cc(-c2cc3nc(C(C(=O)NCC(=O)NCCOC(C)C)S(C)(=O)=O)sc3cc2F)cnn1 (stereo not shown) [Example 362, 2-[6-fluoro-5-(6-methylpyridazin-4-yl)-1,3-benzothiazol-2-yl]-2-methanesulfonyl-N-({[2-(propan-2-yloxy)ethyl]carbamoyl}methyl)acetamide]
38 | – | COCCS(=O)(=O)C(C(=O)NCC(=O)NC1CC1)c1nc2cc(-c3cccc(C(=O)N(C)C)c3)ccc2s1 (stereo not shown) [Example 398, 3-[2-({[(cyclopropyl-carbamoyl)methyl]carbamoyl}(2-methoxyethane-sulfonyl)methyl)-1,3-benzothiazol-5-yl]-N,N-dimethyl-benzamide]
46 | – | COCCS(=O)(=O)C(C(=O)NCC(=O)NC1CC1)c1nc2ccc(-c3ccc(C(N)=O)cc3)cc2s1 (stereo not shown) [Example 329, 4-[2-({[(cyclopropyl-carbamoyl)methyl]carbamoyl}(2-methoxyethane-sulfonyl)methyl)-1,3-benzothiazol-6-yl]benzamide]
22 | – | CC(C)S(=O)(=O)C(C(=O)NCC(=O)NC1CC1)c1nc2c(F)cc(-c3cnc(-c4ccccc4)nc3)cc2s1 (stereo not shown) [Example 282, N-[(cyclopropyl-carbamoyl)methyl]-2-[4-fluoro-6-(2-phenylpyrimidin-5-yl)-1,3-benzothiazol-2-yl]-2-(propane-2-sulfonyl)acetamide]
3 | – | Cc1cc2nc(C(C(=O)NCC(=O)NC3CC3)S(=O)(=O)C(C)C)sc2cc1-c1ccc(C(=O)N2CCC2)cc1 (stereo not shown) [Example 259, 2-{6-[4-(azetidine-1-carbonyl)phenyl]-5-methyl-1,3-benzothiazol-2-yl}-N-[(cyclopropyl-carbamoyl)methyl]-2-(propane-2-sulfonyl)acetamide]
2 | – | Cc1cc2nc(C(C(=O)NCC(=O)NC3CC3)S(=O)(=O)C(C)C)sc2cc1-c1ccc2[nH]c(=O)ccc2c1 (stereo not shown) [Example 204, N-[(cyclopropyl-carbamoyl)methyl]-2-[5-methyl-6-(2-oxo-1,2-dihydroquinolin-6-yl)-1,3-benzothiazol-2-yl]-2-(propane-2-sulfonyl) acetamide]
9 | – | COC(=O)Nc1cccc(-c2ccc3nc(C(C(=O)NCC(=O)NC4CC4)S(=O)(=O)Cc4cccc(C#N)c4)sc3c2)c1 (stereo not shown) [Example 278, methyl N-(3-{2-[(3-cyanophenyl)methanesulfonyl ({[(cyclopropyl-carbamoyl)methyl]carbamoyl})methyl]-1,3-benzothiazol-6-yl}phenyl)carbamate]
11 | – | COCCS(=O)(=O)C(C(=O)NCC(=O)NC1CC1)c1nc2cc(-c3cncc(OC)c3)ccc2s1 (stereo not shown) [Example 64, N-[(cyclopropyl-carbamoyl)methyl]-2-(2-methoxyethane-sulfonyl)-2-[5-(5-methoxypyridin-3-yl)-1,3-benzothiazol-2-yl]acetamide]
4 | – | COCCS(=O)(=O)C(C(=O)NCC(=O)NC1CC1)c1nc2ccc(-c3ccc(C(=O)NCC(F)(F)F)cc3)cc2s1 (stereo not shown) [Example 97, 4-[2-({[(cyclopropyl-carbamoyl)methyl]carbamoyl}(2-methoxyethane-sulfonyl)methyl)-1,3-benzothiazol-6-yl]-N-(2,2,2-trifluoroethyl) benzamide]
8 | – | O=C(CNC(=O)C(c1nc2ccc(-c3ccc(OCC4CC4)nc3)cc2s1)S(=O)(=O)Cc1ccc(F)cc1)NC1CC1 (stereo not shown) [Example 205, N-[(cyclopropyl-carbamoyl)methyl]-2-{6-[6-(cyclopropyl-methoxy)pyridin-3-yl]-1,3-benzothiazol-2-yl}-2[(4-fluorophenyl)methanesulfonyl] acetamide]
10 | – | Cc1cc2nc(C(C(=O)NCC(=O)NC3CC3)S(=O)(=O)C(C)C)sc2cc1-c1ccc(=O)n(C(C)C)c1 (stereo not shown) [Example 207, N-[(cyclopropyl-carbamoyl)methyl]-2-{5-methyl-6-[6-oxo-1-(propan-2-yl)-1,6-dihydropyridin-3-yl]-1,3-benzothiazol-2-yl}-2-(propane-2-sulfonyl) acetamide]
49 | – | COCCS(=O)(=O)C(C(=O)NCC(=O)NCCOC(C)C)c1nc2cc(-c3ccnn3C)c(F)cc2s1 (stereo not shown) [Example 357, 2-[6-fluoro-5-(1-methyl-1H-pyrazol-5-yl)-1,3-benzothiazol-2-yl]-2-(2-methoxyethane-sulfonyl)-N-({[2-(propan-2-yloxy)ethyl]carbamoyl}methyl)acetamide]
346 | – | CCOc1ncccc1-c1ccc2sc(C(C(=O)NCC(=O)NC3CC3)S(=O)(=O)CCOC)nc2c1 (stereo not shown) [Example 87, N-[(cyclopropyl-carbamoyl)methyl]-2-[5-(2-ethoxypyridin-3-yl)-1,3-benzothiazol-2-yl]-2-(2-methoxyethane-sulfonyl) acetamide]
